Results: US20240343713A1, “TELOMERASE INHIBITOR COMPOUNDS” (Geron Corporation, priority 2023, published 2024)

How the values were obtained:
LUC-MOLM13 cell line = details: for leukemia cell burden / tumor load by bioluminescence imaging (BLI), overall: male NOD-SCID mice, LUC-MOLM13 i.v., PO alternate days, test compounds finally 10 mg/Kg, BIBR-1532 50 mg/Kg, up to Day 28, vs vehicle control
Description: Screening of anticancer activity of compounds in an efficacy model using Luc-MOLM13 cell line
The efficacy study was conducted to assess the tumor regression of Compound 1, Compound 2, and Compound 3 shown below in male NOD-SCID mice using LUC-MOLM13 cell line. Individual animals were assigned identification markings on the ear.
Each mouse was intravenously injected with 1 million LUC-MOLM13 tumor cells in a total volume of 0.1 mL in DPBS and this would be considered as Day 0. Luciferin (150 mg/Kg body weight) was planned to be injected (JP) 5 mins before imaging and sequential 1-2 images of mice were planned every 1 minute. The animals were planned to be dosed with test compounds from Day 10 onwards by oral route at doses of 50 mg/Kg every alternate day.
The efficacy study was conducted to assess the inhibitory effect of Compound 1, Compound 3 and Compound 2 on leukemia cell expansion in male NOD-SCID mice using LUC-MOLM13 cell line.
1 million of LUC-MOLM13 cells/100 μL were suspended in DPBS and were inoculated per mouse via intravenous route in the lateral tail vein in NOD SCID male mice (Fed animals) of 6 to 8 weeks old after 7 days of acclimatization. This was considered as Day-0 of the study.
Luciferin (150 mg/Kg body weight) was injected (IP) 5 mins before imaging and sequential 1-2 images of mice were taken every 1 minute.
Bioluminescence imaging for tumor evaluation was done on Days 0, 5, 10, 15, 18, 21 and 28 respectively along with regular body weight monitoring. The following observations were monitored at regular intervals: body weight (% body weight loss), frequencies of leukemic cells (LUC-MOLM13) in hematopoietic organs and non-lymphoid tissues using imaging on an IVIS spectrum imager for tumor burden evaluation.
Other observations included any clinical signs/observations upon dosing. […] A range of tissues were collected including brain, axillary lymph node, eyes, branchial lymph node, lungs, heart, stomach, liver, kidney, spleen, cervical lymph node, mesenteric lymph node, inguinal lymph node, GI tract and male reproductive organ. Growth kinetics of Luc-MOLM13 cells was monitored based on BLI along with survival curve.
Initial plan was to dose from Day 10 onwards by oral route at doses of 50 mg/Kg every alternate day; however, we initiated the dosing from Day-8 onwards based on few reports [7, 8]. […] BIBR-1532 dosing was maintained at 50 mg/Kg every alternate day. […] Dosing was stopped for the next 4 days for all test compounds and BIBR-1532 considering the animal health condition. […]
The data for bioluminescence imaging levels (BLI (Avg Radiance) was captured from the instrument across the individual groups for the ROI (region of interest (ROI) and the average radiance was calculated to understand the levels as compared to vehicle control (Group 3).

[1] = for deaths after first dose reduction: 25 mg/Kg (Compound 1, Compound 2) or 10 mg/Kg (Compound 3) PO on Day-10 and Day-12, deaths Day 11-13; for animals lost due to overdose early in the study: initial dosing 50 mg/Kg then 25 or 10 mg/Kg PO, 7 animals per group
Description: 7.1 Body Weight. The body weight data of NOD-SCID mice used for this study involving different treatment groups (Vehicle Control, 10 mg/Kg of the three treatment groups and 50 mg/Kg of the reference standard) was monitored every alternate day.

Structure (SMILES)	bioluminescence (average radiance) on Day 21 (LUC-MOLM13 cell line; Day 21, test compounds 10 mg/Kg, BIBR-1532 50 mg/Kg PO)	survival curve / deaths (LUC-MOLM13 cell line; after dose reduction, test compounds 10 mg/Kg, BIBR-1532 50 mg/Kg PO alternate days, until Day 34)	leukemia cell burden / tumor load by bioluminescence imaging (BLI), overall (LUC-MOLM13 cell line)	overall animal health ([1]; LUC-MOLM13 tumor-bearing NOD-SCID mice, test compounds 10 mg/Kg, BIBR-1532 50 mg/Kg PO)	deaths after first dose reduction [1]	animals lost due to overdose early in the study [1]	loss of animals after the first dose ([1]; mouse, in vivo)
C/C(=C\C(=O)Nc1ccccc1C(=O)O)c1ccc2ccccc2c1 [BIBR-1532, reference compound]	signal was enhanced	one death on Day 31 and another on Day 34	repressed as the days progressed	deteriorated	–	–	–
C=C1C(=O)OC(c2ccc(Cl)cc2-c2cnn(C)c2)C1O (stereo not shown) [Compound 3]	–	–	comparable impact on leukemia cell reduction to that of BIBR-1532, albeit at a lower dosage	–	1	two	one
C=C1CC(c2ccc(Cl)cc2-c2cn[nH]c2)OC1=O (stereo not shown) [Compound 1]	–	–	–	–	one animal each on Day 12 and Day-13	two	–
